The test system of one assay is HCMV. Description: HCMV reproduction and spread in NHDFs, virus titer (TCID/50). Format: cell-based, human cytomegalovirus. Conditions: 1 μM JAK inhibitor (Pyridone 6) vs DMSO.
Assay [1] concerns IFNB1 mRNA. In words: IFNB1 mRNA abundance in response to dsDNA in siRNA-treated NHDFs with or without JAK inhibitor (qRT-PCR). Format: cell-based, human. Conditions: NHDFs transfected with dsDNA, JAK inhibitor (Pyridone 6) vs DMSO (FIG. 5A).
The subject of a further assay is cellular m^6A effectors. Description: HCMV-induced accumulation of cellular m^6A effector proteins in NHDFs (immunoblotting). Format: cell-based, human. Particulars: NHDFs infected with HCMV (MOI=3); PP242 25 μM vs DMSO (FIG. 1E). For orientation: In western blotting, separated proteins are transferred to a membrane and probed.
Assay [2] deals with IFNB1 mRNA. In words: dsDNA-induced IFNB1 mRNA accumulation in primary human fibroblasts (RT-PCR), Rhein treatment. Type of assay: cell-based. Conditions: primary human fibroblasts transfected with dsDNA, measured after 9 h; Rhein added 24 h prior to or at time of transfection; vs DMSO vehicle (FIG. 16).

Data on three compounds can be found in patent US20210164992A1, “COMPOSITIONS AND METHODS RELATED TO INNATE RESPONSE TO DNA AND REGULATION OF INTERFERON-BETA” (priority 2018, published 2021).

Regarding `CC(C)(C)c1nc2c3cc[nH]c(=O)c3c3cc(F)ccc3c2[nH]1` [JAK inhibitor, Pyridone 6], the “increase of HCMV reproduction in control siRNA-treated cultures” value in the assay with HCMV (MOI=0.05, 7 d (FIG. 2D)) is “less than 10 fold”. In the assay on HCMV (MOI=0.05, 7 d, compared to control siRNA levels (FIG. 2D)), the “HCMV reproduction in METTL14 siRNA-treated cultures” value was “to a large extent restored HCMV reproduction”. In addition, in the assay with IFNB1 mRNA [1], the “kinetics of IFNB1 mRNA accumulation” value is given as “faster”. Regarding `CC(C)n1nc(-c2cc3cc(O)ccc3[nH]2)c2c(N)ncnc21` [PP242], the “HCMV-induced increase in cellular m^6A effectors” value in the assay with cellular m^6A effectors is “repressed”. Take `O=C(O)c1cc(O)c2c(c1)C(=O)c1cccc(O)c1C2=O` [Rhein]: in the assay with IFNB1 mRNA [2], the “IFNB1 mRNA production” value is “dose-dependent inhibition of IFNB1 mRNA production”.
